biological target: T1, purified human IDO protein (Homo sapiens, UniProt P14902); assay: Enzymatic IDO assay (kynurenine production, absorbance at 480 nm); assay type: biochemical; conditions: hIDO IC50, recombinant human IDO; values reported in ranges
T1 construct: 2 extra amino acids (linker from the BglII cloning site of pQE70); made in house; host or cells: E. coli M15(pREP4) with plasmid pQE70-hIDO
Procedure: The inhibitors were initially diluted in DMSO at 100 mM and were diluted in potassium phosphate 50 mM, added to the reaction mixture at final concentrations raging from 1 mM to 5 nM and preincubated with the enzyme for 5 min at 25° C. The reaction was started by addition of L-tryptophan to 200 μM and incubated 15 min at 37° C. The reaction was stopped by addition of 0.5 vol of 30% trichloroacetic acid and incubated 30 min at 60° C. to hydrolyze N-formylkynurenine to kynurenine. The reaction was centrifuged at 3400 g for 5 min to remove precipitated protein and the supernatant was reacted with 2% (w/v) of p-dimethylaminobenzaldehyde in acetic acid. The reaction was incubated 10 min at 25° C. and read at 480 nm in a spectrophotometer. […] Nonlinear regressions and determination of the IC50 values were performed using the GraphPad Prism 4 software.

T1 sequence (P14902 whole entry P110S/E119G): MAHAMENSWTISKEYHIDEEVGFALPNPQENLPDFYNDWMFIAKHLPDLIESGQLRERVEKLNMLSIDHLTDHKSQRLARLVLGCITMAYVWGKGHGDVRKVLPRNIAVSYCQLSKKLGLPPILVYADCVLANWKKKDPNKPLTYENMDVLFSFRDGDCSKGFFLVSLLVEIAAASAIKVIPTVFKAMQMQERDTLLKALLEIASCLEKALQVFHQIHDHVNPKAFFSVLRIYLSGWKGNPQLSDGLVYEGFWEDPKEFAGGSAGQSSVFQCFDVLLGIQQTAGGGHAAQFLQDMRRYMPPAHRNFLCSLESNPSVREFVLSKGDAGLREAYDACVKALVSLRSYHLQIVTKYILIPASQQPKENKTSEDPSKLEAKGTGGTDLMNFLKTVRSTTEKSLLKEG

| SMILES | IC50 |
| --- | --- |
| CN(C)C(=O)Oc1ccc(Br)cc1-c1c[nH]cn1 [compound 1035, 4-bromo-2-(1H-imidazol-4-yl)phenyl dimethylcarbamate] | > 100 µM |
| O=C1NCCN1C(=O)Oc1ccc(Cl)cc1-c1c[nH]cn1 [compound 1147, 4-chloro-2-(1H-imidazol-4-yl)phenyl 2-oxoimidazolidine-1-carboxylate] | 1 to 10 µM |

same assay, conditions: recombinant human IDO; values reported in ranges; read-out: hIDO IC50

| SMILES | IC50 |
| --- | --- |
| c1nc(-c2ccc3c(c2)OCCO3)c[nH]1 [compound 971, 4-(2,3-dihydrobenzo[b][1,4]dioxin-6-yl)-1H-imidazole] | > 100 µM |
| CC(=O)NCc1ccccc1-c1c[nH]cn1 [compound 1207, N-(2-(1H-imidazol-4-yl)benzyl)acetamide] | > 100 µM |
| COc1cc(F)c(Cl)cc1-c1cnc[nH]1 [compound 1051, 5-(5-chloro-4-fluoro-2-methoxyphenyl)-1H-imidazole] | > 100 µM |
| FC(F)(F)c1ccc(COc2ccccc2-c2c[nH]cn2)cc1 [compound 1023, 4-(2-(4-(trifluoromethyl)benzyloxy)phenyl)-1H-imidazole] | > 100 µM |
| O=C(Oc1ccc(Cl)cc1-c1c[nH]cn1)N1CCCC1 [compound 1087, 4-chloro-2-(1H-imidazol-4-yl)phenyl pyrrolidine-1-carboxylate] | > 100 µM |
| c1ccc(-c2c[nH]cn2)c(OCc2ccc3c(c2)OCO3)c1 [compound 1027, 4-(2-(benzo[d][1,3]dioxol-5-ylmethoxy)phen-yl)-1H-imidazole] | 10 to 100 µM |
| Oc1cccc(OCCc2ccncc2)c1-c1cnc[nH]1 [compound 1238, 2-(1H-imidazol-5-yl)-3-(2-(pyridin-4-yl)ethoxy) phenol] | 10 to 100 µM |
| O=C(NCc1cccc(Cl)c1)C1CCC(=CCOc2ccccc2-c2c[nH]cn2)CC1 (stereo not shown) [compound 947, 4-(2-(2-(1H-imidazol-4-yl)phenoxy)ethylidene)-N-(3-chlorobenzyl)cyclohexanecarbox-amide] | 10 to 100 µM |
| CC(C)(C)OC(=O)N1CCC(CCOc2cccc(O)c2-c2cnc[nH]2)CC1 [compound 1240, tert-butyl 4-(2-(3-hydroxy-2-(1H-imidazol-5-yl)phenoxy)ethyl)piperidine-1-carboxylate] | 10 to 100 µM |
| Oc1cc(F)ccc1-c1cnc[nH]1 [compound 1120, 5-fluoro-2-(1H-imidazol-5-yl)phenol] | 10 to 100 µM |
| CNC(=O)c1ccccc1CCOc1ccccc1-c1c[nH]cn1 [compound 1332, 2-(2-(2-(1H-imidazol-4-yl)phenoxy)ethyl)-N-methylbenzamide] | > 100 µM |
| Oc1cccc(-c2c[nH]cn2)n1 [compound 1011, 6-(1H-imidazol-4-yl)pyridin-2-ol] | > 100 µM |
| CCC(O)(COc1ccccc1-c1c[nH]cn1)c1cccs1 (stereo not shown) [compound 976, 1-(2-(1H-imidazol-4-yl)phenoxy)-2-(thiophen-2-yl)butan-2-ol] | 10 to 100 µM |
| Ic1ccccc1-c1cnc[nH]1 [compound 1119, 5-(2-iodophenyl)-1H-imidazole] | 10 to 100 µM |
| O=C(COc1ccccc1-c1c[nH]cn1)c1cccc(Br)c1 [compound 953, 2-(2-(1H-imidazol-4-yl)phenoxy)-1-(3-bromo-phenyl)ethanone] | 10 to 100 µM |
| Clc1ccc2c(-c3c[nH]cn3)ccnc2c1 [compound 969, 7-chloro-4-(1H-imidazol-4-yl)quinoline] | > 100 µM |
| c1ccc(-c2c[nH]cn2)c(OCCc2ccc(N3CCCCC3)cc2)c1 [compound 1223, 1-(4-(2-(2-(1H-imidazol-4-yl)phenoxy)ethyl)phenyl)piperidine] | 10 to 100 µM |
| c1ccc(-c2c[nH]cn2)c(OCc2ccc3occc3c2)c1 [compound 1028, 4-(2-(benzofuran-5-ylmethoxy)phenyl)-1H-imidazole] | 10 to 100 µM |

Next, values leading:

| IC50 | SMILES |
| --- | --- |
| 10 to 100 µM | Oc1cccc(OCCN2CCOCC2)c1-c1cnc[nH]1 [compound 1231, 2-(1H-imidazol-5-yl)-3-(2-morpholinoethoxy) phenol] |
| 10 to 100 µM | CC(Oc1ccccc1-c1c[nH]cn1)c1ccccc1 (stereo not shown) [compound 1045, 4-(2-(1-phenylethoxy)phenyl)-1H-imidazole] |
| 1 to 10 µM | c1ccc(Nc2nc3ccc(CCOc4ccccc4-c4c[nH]cn4)cc3o2)cc1 [compound 1222, 6-(2-(2-(1H-imidazol-4-yl)phenoxy)ethyl)-N-phenylbenzo[d]oxazol-2-amine] |
| 10 to 100 µM | BrCCOc1ccccc1-c1c[nH]cn1 [compound 1243, 4-(2-(2-bromoethoxy)phenyl)-1H-imidazole] |
| 10 to 100 µM | CC(C)(C)CC(=O)N1CCC(CCOc2ccccc2-c2c[nH]cn2)CC1 [compound 1143, 1-(4-(2-(2-(1H-imidazol-4-yl)phenoxy)ethyl)piperidin-1-yl)-3,3-dimethylbutan-1-one] |
| 1 to 10 µM | O=C(Cc1cncnc1)Nc1ccc(CCOc2ccccc2-c2c[nH]cn2)cc1 [compound 1239, N-(4-(2-(2-(1H-imidazol-4-yl)phenoxy)ethyl)phenyl)-2-(pyrimidin-5-yl)acetamide] |
| < 1 µM | O=C(Cc1cncnc1)Nc1ccc(CCOc2ccccc2-c2c[nH]cn2)c(Cl)c1 [compound 1366, N-(4-(2-(2-(1H-imidazol-4-yl)phenoxy)ethyl)-3-chlorophenyl)-2-(pyrimidin-5-yl)acetamide] |
| 1 to 10 µM | O=C(O)c1cccc(C(=O)Nc2ccc(CCOc3ccccc3-c3c[nH]cn3)cc2)c1 [compound 1276, 3-((4-(2-(2-(1H-imidazol-4-yl)phenoxy)ethyl)phenyl)carbamoyl)benzoic acid] |
| 1 to 10 µM | O=C(Cc1ccccc1)N1CCC(CCOc2ccccc2-c2c[nH]cn2)CC1 [compound 1186, 1-(4-(2-(2-(1H-imidazol-4-yl)phenoxy)ethyl)piperidin-1-yl)-2-phenylethanone] |
| 1 to 10 µM | O=C(Nc1ccc(CCOc2ccccc2-c2c[nH]cn2)cc1)c1ccc[nH]c1=O [compound 1204, N-(4-(2-(2-(1H-imidazol-4-yl)phenoxy)ethyl)phenyl)-2-oxo-1,2-dihydropyridine-3-carboxamide] |
| 1 to 10 µM | CC(COc1ccccc1-c1c[nH]cn1)c1coc2ccccc12 (stereo not shown) [compound 1031, 4-(2-(2-(benzofuran-3-yl)propoxy)phenyl)-1H-imidazole] |
| 1 to 10 µM | Nc1ccc(CCOc2ccccc2-c2c[nH]cn2)cc1 [compound 1078, 4-(2-(2-(1H-imidazol-4-yl)phenoxy)ethyl) aniline] |
| 1 to 10 µM | Oc1ccc(Cl)c(OCCC2CCCCC2)c1-c1cnc[nH]1 [compound 1172, 4-chloro-3-(2-cyclohexylethoxy)-2-(1H-imidazol-5-yl)phenol] |
| 1 to 10 µM | O=C(Cc1cccs1)N1CCC(CCOc2ccccc2-c2c[nH]cn2)CC1 [compound 1176, 1-(4-(2-(2-(1H-imidazol-4-yl)phenoxy)ethyl)piperidin-1-yl)-2-(thiophen-2-yl)ethanone] |
| 1 to 10 µM | Fc1ccccc1CCOc1ccccc1-c1cnc[nH]1 [compound 1106, 5-(2-(2-fluorophenethoxy)phenyl)-1H-imidazole] |
| 1 to 10 µM | O=C(Cc1ccccc1)Nc1ccc(CCOc2ccccc2-c2c[nH]cn2)cn1 [compound 1228, N-(5-(2-(2-(1H-imidazol-4-yl)phenoxy)ethyl)pyridin-2-yl)-2-phenylacetamide] |
| < 1 µM | N[C@@H]1CCCC[C@H]1NC(=O)Nc1ccc(CCOc2ccccc2-c2c[nH]cn2)c(Cl)c1 (racemic) [compound 1361, 1-(4-(2-(2-(1H-imidazol-4-yl)phenoxy)ethyl)-3-chlorophenyl)-3-(±(1R,2R)-2-aminocyclohexyl)urea] |
